Results on five compounds are retold here after patent US20130102009A1, “SIRTUIN ACTIVATORS AND ACTIVATION ASSAYS” (priority 2010, published 2013).

SMILES strings stand for the structures. Where a name gives a salt, the structure may show the parent alone.

Assay [1] addresses T1, SIRT1 (Homo sapiens, UniProt Q96EB6).
T1 sequence (Q96EB6 1-747): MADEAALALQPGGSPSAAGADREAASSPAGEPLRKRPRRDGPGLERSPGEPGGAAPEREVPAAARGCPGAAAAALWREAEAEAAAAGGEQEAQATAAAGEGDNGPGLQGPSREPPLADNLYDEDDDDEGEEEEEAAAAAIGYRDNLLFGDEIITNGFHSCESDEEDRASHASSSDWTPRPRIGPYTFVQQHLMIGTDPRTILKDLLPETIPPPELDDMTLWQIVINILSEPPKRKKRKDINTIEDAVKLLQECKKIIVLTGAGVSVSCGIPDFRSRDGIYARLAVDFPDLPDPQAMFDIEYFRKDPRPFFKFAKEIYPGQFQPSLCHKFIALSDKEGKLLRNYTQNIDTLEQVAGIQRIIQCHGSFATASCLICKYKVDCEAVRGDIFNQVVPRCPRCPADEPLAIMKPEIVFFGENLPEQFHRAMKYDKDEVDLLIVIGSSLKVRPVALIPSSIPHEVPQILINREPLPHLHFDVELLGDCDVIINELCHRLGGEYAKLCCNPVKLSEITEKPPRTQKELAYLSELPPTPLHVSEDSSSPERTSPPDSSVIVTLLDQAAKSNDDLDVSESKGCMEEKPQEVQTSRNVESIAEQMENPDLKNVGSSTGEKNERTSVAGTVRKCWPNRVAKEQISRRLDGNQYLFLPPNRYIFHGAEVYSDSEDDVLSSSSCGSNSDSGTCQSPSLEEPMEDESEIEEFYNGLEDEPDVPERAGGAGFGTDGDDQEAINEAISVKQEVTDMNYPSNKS
In words: Mass spectrometry based SIRT1 activation assay (TAMRA/5TMR-labeled 20mer peptide). It counts as biochemical. The settings on record: for Emax: 25 min, percent maximum fold activation of SIRT1, read-out: % FOLD ACT.; for EC1.5 uM: concentration that results in 150% activation of SIRT1. The procedure, abridged:
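N-terminal His-tagged human SIRT1 from E. coli BL21(DE3), 10 nM, incubated 25 min at 25° C with 0.5 μM biotin/5TMR-labeled acetylated p53-derived 20mer peptide and 120 μM βNAD+ in Tris-acetate pH 8 buffer with DTT and BSA. Formic acid stop; MS quantifies acetylated vs deacetylated peptide. EC1.5 = concentration giving 150% activation.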

Assay [2] addresses Ac-Arg-His-Lys-Lys^Ac-Phe-NH2. In words: ITC binding of STACs to Ac-Arg-His-Lys-Lys^Ac-X, X=PheNH2. The note with it: 10% DMSO for SRT1720, SRT2183 and 10, no cosolvent for SRT1460. Here is the method:
(§1) ITC experiments were performed using either a VP-ITC system or iTC200 system (MicroCal) at 26° C. in a buffer composed of 137 mM NaCl, 2.7 mM KCl, 1 mM MgCl2, 2 mM TCEP, 5% (v/v) glycerol and 50 mM HEPES-NaOH, pH 7.3. SIRT1(183-664) was purified and dialyzed against the buffer, centrifuged, and degassed before the experiment. The peptide and compounds were dissolved in the final dialysis buffer and their pH values were adjusted to match that of the protein solution. […] To characterize this interaction using the iTC200 system, 1 mM TAMRA-peptide was injected in 20 aliquots of 2 μL, (except the first injection, which was 0.5 μL) into a 0.202 mL sample cell containing 100 μM STAC. For STACs with poor solubility, the concentrations were adjusted accordingly. […] In all cases, data was corrected for the heat of dilution and fitted using a nonlinear least-squares routine using a single-site binding model with Origin for ITC v7.0383 (Microcal) with the stoichiometry (n), the enthalpy of the reaction (ΔH) and the association constant (Ka) calculated. Table 2 summarizes Kd values for the binding of STACs to […]. Note that except for SRT1460, the solubility of the compounds required that these ITC experiments be done in solutions containing 10% DMSO.

The target in assay [3] is Ac-Arg-His-Lys-Lys^Ac-Trp-NH2. In words: ITC binding of STACs to Ac-Arg-His-Lys-Lys^Ac-X, X=TrpNH2. The settings on record: 10% DMSO for SRT1720, SRT2183 and 10, no cosolvent for SRT1460. The protocol:
as §1

As to `CN(C)Cc1cnc2sc(-c3ccccc3NC(=O)c3cnc4ccccc4n3)nc2c1` [Compound 2, N-(2-(6-((dimethylamino)methyl)thiazolo[5,4-b]pyridin-2-yl)phenyl)quinoxaline-2-carboxamide], in assay [1], the Emax is under 200% and the “EC1.5 uM” value is “B (EC1.5>1 μM)”.
As to `Cc1nc(-c2cccnc2)sc1C(=O)Nc1ccccc1-c1cn2c(CN3CC4CC3CN4)csc2n1` (stereo not drawn) [Compound 4, N-(2-(3-(2,5-diazabicyclo[2.2.1]heptan-2-ylmethyl)imidazo[2,1-b]thiazol-6-yl)phenyl)-4-methyl-2-(pyridin-3-yl)thiazole-5-carboxamide], in assay [1], the Emax was at least 200% and the “EC1.5 uM” value is “A (EC1.5≦1 μM)”.
As for `CCCCc1nc(NC2CCNCC2)cc(C(=O)Nc2ccccc2-c2nc3cc(COC4CCNCC4)cnc3s2)n1` [Compound 10, 2-butyl-6-(piperidin-4-ylamino)-N-(2-(6-((piperidin-4-yloxy)methyl)thiazolo[5,4-b]pyridin-2-yl)phenyl)pyrimidine-4-carboxamide], in assay [2], the Kd is 190 µM and the “Kd for binding to Ac-Arg-His-Lys-Lys^Ac-X, X=PheNH2” value was “does bind”. Also, in assay [3], the affinity, expressed as Kd, was 25 µM and the “Kd for binding to Ac-Arg-His-Lys-Lys^Ac-X, X=TrpNH2” value is listed as “binds”. In assay [1], the Emax is at least 200% and the “EC1.5 uM” value is recorded as “A (EC1.5≦1 μM)”.
In the case of `CN(C)CCCNc1cc(-c2nc3c(NC(=O)c4ccc(CN5CCNCC5)cc4)cccc3[nH]2)ccn1` [Compound 14, N-(2-(2-(3-(dimethylamino)propylamino)pyridin-4-yl)-1H-benzo[d]imidazol-4-yl)-4-(piperazin-1-ylmethyl)benzamide trihydrochloride], in assay [1], the Emax was at least 200% and the “EC1.5 uM” value is “A (EC1.5≦1 μM)”.
As to `COc1cc(C(=O)Nc2ccccc2-c2cn3c(CN4CCNCC4)csc3n2)cc(OC)c1OC` [SRT1460], in assay [2], the Kd is over 500 µM and the “Kd for binding to Ac-Arg-His-Lys-Lys^Ac-X, X=PheNH2” value is reported as “no binding”. For the same compound, the Kd in assay [3] was over 500 µM.

A word on the Kd: it is the free concentration of one partner at which half of the binding sites on the other are occupied at equilibrium, for simple one-to-one binding.
